Experimental data from patent publication US20170107229A1, “SUBSTITUTED TETRAHYDROPYRIDOTHIENOPYRIMIDINES” (BAYER PHARMA AKTIENGESELLSCHAFT, priority 2014, published 2017).

Molecular target: T1, human full-length MKNK1 (Homo sapiens, UniProt Q9BUB5, T385D)
T1 construct: GST (N); purchased Carna Biosciences 02-145; host or cells: insect cells (baculovirus expression system)
Test: MKNK1 kinase high ATP assay (TR-FRET)
Assay type: biochemical
Details: high ATP (2 mM final), 15 min preincubation with enzyme, GST-MKNK1 (T344D)
How it was run: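 GST-tagged human full-length MKNK1 (T344D), insect-cell expressed, preincubated 15 min at 22 °C with compound, then reacted 30 min at 22 °C with 2 mM ATP and 0.06 μM biotinylated peptide (final) in HEPES pH 7.5. Phospho-peptide detected by TR-FRET (665/620 nm ratio) after EDTA stop; normalised to no-inhibitor and no-enzyme controls.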

T1 sequence (Q9BUB5 1-424 isoform Q9BUB5-2 T344D): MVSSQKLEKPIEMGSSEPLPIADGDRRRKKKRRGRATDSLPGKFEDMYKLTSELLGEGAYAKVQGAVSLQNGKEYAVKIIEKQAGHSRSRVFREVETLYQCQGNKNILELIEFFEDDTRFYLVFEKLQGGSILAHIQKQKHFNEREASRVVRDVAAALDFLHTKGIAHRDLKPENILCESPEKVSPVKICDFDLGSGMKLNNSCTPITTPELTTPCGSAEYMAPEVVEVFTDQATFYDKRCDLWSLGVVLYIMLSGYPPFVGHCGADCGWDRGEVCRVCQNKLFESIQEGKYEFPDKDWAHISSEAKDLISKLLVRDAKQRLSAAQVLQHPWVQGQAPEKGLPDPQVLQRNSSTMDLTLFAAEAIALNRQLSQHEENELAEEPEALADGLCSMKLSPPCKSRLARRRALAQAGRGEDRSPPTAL

Row | IC50 | SMILES
1 | 0.015 µM | CC(C)C(=O)N1CCc2c(sc3ncnc(Nc4ccc5[nH]ncc5c4)c23)C1 [Example 19, 1-[4-(1H-indazol-5-ylamino)-5,8-dihydropyrido[4′,3′:4,5]thieno[2,3-d]pyrimidin-7(6H)-yl]-2-methylpropan-1-one]
2 | 0.125 µM | CS(=O)(=O)N1CCc2c(sc3ncnc(Nc4cc5cn[nH]c5cc4Cl)c23)C1 [Example 49, N-(6-Chloro-1H-indazol-5-yl)-7-(methylsulfonyl)-5,6,7,8-tetrahydropyrido[4′,3′:4,5]thieno[2,3-d]pyrimidin-4-amine]
3 | 0.079 µM | CC(C)(C)OC(=O)N1CCc2c(sc3ncnc(Nc4cc5cn[nH]c5cn4)c23)C1 [Example 7, tert-Butyl 4-(1H-pyrazolo[3,4-c]pyridin-5-ylamino)-5,8-dihydropyrido[4′,3′:4,5]thieno[2,3-d]pyrimidine-7(6H)-carboxylate]
4 | 0.009 µM | COc1cc2[nH]ncc2cc1Nc1ncnc2sc3c(c12)CCN(C(=O)C1CCN(C)CC1)C3 [Example 68, {4-[(6-Methoxy-1H-indazol-5-yl)amino]-5,8-dihydropyrido[4′,3′:4,5]thieno[2,3-d]pyrimidin-7(6H)-yl}(1-methylpiperidin-4-yl)methanone]
5 | 0.015 µM | CSc1cc2[nH]ncc2cc1Nc1ncnc2sc3c(c12)CCN(CC(F)(F)F)C3 [Example 11, N-[6-(Methylsulfanyl)-1H-indazol-5-yl]-7-(2,2,2-trifluoroethyl)-5,6,7,8-tetrahydropyrido[4′,3′:4,5]thieno[2,3-d]pyrimidin-4-amine]
6 | 0.004 µM | COc1cc2[nH]ncc2cc1Nc1ncnc2sc3c(c12)CCN(C(=O)C(C)C)C3 [Example 22, 1-{4-[(6-Methoxy-1H-indazol-5-yl)amino]-5,8-dihydropyrido[4′,3′:4,5]thieno[2,3-d]pyrimidin-7(6H)-yl}-2-methylpropan-1-one]
7 | 0.028 µM | CN1CCC(C(=O)N2CCc3c(sc4ncnc(Nc5cc6cn[nH]c6cn5)c34)C2)CC1 [Example 77, (1-Methylpiperidin-4-yl)[4-(1H-pyrazolo[3,4-c]pyridin-5-ylamino)-5,8-dihydropyrido[4′,3′:4,5]thieno[2,3-d]pyrimidin-7(6H)-yl]methanone]
8 | 0.032 µM | CN(C)C(=O)N1CCc2c(sc3ncnc(Nc4ccc5[nH]ncc5c4)c23)C1 [Example 15, 4-(1H-Indazol-5-ylamino)-N,N-dimethyl-5,8-dihydropyrido[4′,3′:4,5]thieno[2,3-d]pyrimidine-7(6H)-carboxamide]
